The target in assay [1] is Serine/threonine-protein kinase pim-1 (Homo sapiens, UniProt P11309). The assay is described as follows: Inhibition of PIM1 using BAD peptide as substrate preincubated for 15 mins measured after 60 to 100 mins by luminescence assay.
The target of assay [2] is Serine/threonine-protein kinase pim-2 (Homo sapiens, UniProt Q9P1W9). The assay is described as follows: Inhibition of PIM2 using BAD peptide as substrate preincubated for 15 mins measured after 60 to 100 mins by luminescence assay.
Chain of Serine/threonine-protein kinase pim-2 (Q9P1W9 whole entry): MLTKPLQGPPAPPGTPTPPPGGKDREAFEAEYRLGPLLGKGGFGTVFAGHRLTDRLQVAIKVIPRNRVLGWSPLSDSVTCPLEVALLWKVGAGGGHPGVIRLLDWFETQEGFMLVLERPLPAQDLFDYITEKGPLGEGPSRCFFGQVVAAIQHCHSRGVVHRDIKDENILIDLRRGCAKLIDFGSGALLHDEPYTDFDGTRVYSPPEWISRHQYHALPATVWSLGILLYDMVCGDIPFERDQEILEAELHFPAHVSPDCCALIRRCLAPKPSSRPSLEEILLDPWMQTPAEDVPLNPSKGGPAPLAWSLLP
Assay [3] concerns the target Serine/threonine-protein kinase pim-3 (Homo sapiens, UniProt Q86V86). The assay is described as follows: Inhibition of PIM3 using BAD peptide as substrate preincubated for 15 mins measured after 60 to 100 mins by luminescence assay.
Assay [4] deals with T1, Receptor-type tyrosine-protein kinase FLT3 (Homo sapiens, UniProt P36888).
T1 sequence (P36888 whole entry): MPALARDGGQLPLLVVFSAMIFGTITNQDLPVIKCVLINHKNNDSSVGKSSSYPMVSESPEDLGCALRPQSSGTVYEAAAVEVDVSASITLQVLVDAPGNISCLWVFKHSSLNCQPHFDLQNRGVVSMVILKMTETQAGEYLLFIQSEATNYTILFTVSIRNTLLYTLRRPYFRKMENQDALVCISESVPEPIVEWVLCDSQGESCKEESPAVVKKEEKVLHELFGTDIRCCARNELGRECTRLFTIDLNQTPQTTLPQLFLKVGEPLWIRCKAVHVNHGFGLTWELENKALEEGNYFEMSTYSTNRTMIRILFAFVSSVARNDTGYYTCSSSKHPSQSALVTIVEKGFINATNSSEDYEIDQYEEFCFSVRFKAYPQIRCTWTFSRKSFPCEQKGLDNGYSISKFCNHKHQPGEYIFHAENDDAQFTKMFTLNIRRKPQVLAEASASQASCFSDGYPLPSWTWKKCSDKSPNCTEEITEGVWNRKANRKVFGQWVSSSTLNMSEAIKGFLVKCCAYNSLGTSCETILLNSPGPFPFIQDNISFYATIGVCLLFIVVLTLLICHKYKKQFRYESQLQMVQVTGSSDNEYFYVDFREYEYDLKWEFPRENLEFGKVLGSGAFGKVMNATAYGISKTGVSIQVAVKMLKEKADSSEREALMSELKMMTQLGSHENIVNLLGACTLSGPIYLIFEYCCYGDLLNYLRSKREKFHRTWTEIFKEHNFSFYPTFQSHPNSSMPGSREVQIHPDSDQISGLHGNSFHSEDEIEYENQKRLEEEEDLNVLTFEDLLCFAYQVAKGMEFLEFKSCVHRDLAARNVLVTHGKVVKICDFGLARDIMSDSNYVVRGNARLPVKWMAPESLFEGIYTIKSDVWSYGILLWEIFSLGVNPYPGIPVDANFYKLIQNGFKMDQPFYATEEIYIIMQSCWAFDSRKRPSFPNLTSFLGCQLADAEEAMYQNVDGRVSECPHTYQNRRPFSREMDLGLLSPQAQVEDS
The assay is described as follows: Inhibition of FLT3.

Assay [5] concerns the target Mast/stem cell growth factor receptor Kit (Homo sapiens, UniProt P10721). The assay is described as follows: Inhibition of cKIT.
Assay [6] can be described thus: Inhibition of PDGFR.
Assay [7] has as its target Vascular endothelial growth factor receptor 2 (Homo sapiens, UniProt P35968). The assay is described as follows: Inhibition of KDR.

Structures are written as SMILES.

Chain of Serine/threonine-protein kinase pim-1 (P11309 whole entry): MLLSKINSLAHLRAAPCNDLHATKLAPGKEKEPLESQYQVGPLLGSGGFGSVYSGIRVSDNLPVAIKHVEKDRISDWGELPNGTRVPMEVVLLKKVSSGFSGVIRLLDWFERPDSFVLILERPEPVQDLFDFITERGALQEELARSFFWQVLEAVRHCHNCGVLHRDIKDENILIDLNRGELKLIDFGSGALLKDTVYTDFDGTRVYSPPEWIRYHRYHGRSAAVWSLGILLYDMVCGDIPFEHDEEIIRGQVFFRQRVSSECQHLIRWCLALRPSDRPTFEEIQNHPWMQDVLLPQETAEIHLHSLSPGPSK
Chain of Vascular endothelial growth factor receptor 2 (P35968 whole entry): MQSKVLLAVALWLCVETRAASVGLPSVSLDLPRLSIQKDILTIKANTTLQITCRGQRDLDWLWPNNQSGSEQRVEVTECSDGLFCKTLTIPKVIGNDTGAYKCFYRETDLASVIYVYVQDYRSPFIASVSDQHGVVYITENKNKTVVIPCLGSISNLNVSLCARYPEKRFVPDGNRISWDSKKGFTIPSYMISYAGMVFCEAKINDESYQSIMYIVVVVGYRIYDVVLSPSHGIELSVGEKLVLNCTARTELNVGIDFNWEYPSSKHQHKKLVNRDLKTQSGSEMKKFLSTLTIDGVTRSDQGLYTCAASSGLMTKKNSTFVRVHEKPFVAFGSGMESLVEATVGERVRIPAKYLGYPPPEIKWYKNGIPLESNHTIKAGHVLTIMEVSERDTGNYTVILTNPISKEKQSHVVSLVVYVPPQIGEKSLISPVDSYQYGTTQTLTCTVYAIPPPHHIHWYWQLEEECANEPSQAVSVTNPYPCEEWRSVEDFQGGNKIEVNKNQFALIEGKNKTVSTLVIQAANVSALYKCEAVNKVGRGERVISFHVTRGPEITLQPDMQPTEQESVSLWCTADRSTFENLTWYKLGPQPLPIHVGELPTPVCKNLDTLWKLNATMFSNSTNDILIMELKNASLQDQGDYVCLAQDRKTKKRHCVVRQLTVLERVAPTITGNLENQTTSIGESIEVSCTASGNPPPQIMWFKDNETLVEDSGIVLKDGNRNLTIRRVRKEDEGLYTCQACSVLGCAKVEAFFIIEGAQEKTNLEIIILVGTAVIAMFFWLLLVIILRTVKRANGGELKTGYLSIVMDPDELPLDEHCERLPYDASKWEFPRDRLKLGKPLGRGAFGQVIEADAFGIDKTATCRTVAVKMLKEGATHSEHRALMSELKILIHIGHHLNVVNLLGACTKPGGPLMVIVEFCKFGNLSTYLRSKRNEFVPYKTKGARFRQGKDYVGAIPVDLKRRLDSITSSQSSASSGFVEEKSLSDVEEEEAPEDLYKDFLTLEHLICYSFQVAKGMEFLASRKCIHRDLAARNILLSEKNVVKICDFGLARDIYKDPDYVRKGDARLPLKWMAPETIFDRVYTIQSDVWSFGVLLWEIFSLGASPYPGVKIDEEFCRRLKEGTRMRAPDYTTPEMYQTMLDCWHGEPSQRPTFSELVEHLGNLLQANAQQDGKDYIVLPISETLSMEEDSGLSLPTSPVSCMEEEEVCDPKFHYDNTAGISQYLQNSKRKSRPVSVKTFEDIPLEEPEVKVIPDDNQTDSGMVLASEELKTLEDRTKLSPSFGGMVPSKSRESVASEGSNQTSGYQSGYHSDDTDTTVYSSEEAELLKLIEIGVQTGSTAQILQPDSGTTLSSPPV
Chain of Mast/stem cell growth factor receptor Kit (P10721 whole entry): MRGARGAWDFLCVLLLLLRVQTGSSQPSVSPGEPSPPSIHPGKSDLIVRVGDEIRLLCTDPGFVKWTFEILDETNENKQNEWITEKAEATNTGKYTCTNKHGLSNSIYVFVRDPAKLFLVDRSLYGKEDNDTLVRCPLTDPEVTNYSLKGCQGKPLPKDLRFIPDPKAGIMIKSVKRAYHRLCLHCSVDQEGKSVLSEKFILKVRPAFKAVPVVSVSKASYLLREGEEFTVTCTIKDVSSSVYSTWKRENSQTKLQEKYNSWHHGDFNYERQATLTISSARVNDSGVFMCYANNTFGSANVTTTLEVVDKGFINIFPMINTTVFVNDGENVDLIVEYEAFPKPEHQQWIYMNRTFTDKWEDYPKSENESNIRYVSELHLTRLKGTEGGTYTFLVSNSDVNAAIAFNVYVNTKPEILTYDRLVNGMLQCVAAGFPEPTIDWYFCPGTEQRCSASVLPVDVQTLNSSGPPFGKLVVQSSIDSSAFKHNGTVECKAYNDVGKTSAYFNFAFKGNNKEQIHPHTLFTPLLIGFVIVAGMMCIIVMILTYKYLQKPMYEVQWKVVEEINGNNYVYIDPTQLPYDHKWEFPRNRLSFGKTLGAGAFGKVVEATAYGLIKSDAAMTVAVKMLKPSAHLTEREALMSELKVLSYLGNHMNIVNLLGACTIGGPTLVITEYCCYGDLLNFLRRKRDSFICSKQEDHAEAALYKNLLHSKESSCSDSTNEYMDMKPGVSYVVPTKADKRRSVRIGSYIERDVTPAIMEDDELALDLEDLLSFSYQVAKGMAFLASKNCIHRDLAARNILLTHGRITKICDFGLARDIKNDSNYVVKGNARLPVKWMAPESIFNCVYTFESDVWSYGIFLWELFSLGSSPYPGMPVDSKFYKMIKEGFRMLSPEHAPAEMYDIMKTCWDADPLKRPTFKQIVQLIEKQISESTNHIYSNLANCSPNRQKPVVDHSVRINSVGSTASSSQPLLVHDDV

Turning to `c1ncc(-c2ccc3[nH]cc(-c4ccc(N5CCNCC5)cc4)c3c2)cn1`, the concentration for half-maximal inhibition (IC50) in assay [1] was 2600 nM; in assay [2] it was greater than 25000 nM; in assay [3], 3300 nM.

Regarding `Oc1ccc(-c2ccc3c(-c4ccc(N5CCNCC5)cc4)c[nH]c3n2)cc1`, the IC50 is 30 nM in assay [1]; 283 nM in assay [2]; 58 nM in assay [3]; 111 nM in assay [4]; 1110 nM in assay [5]; 987 nM in assay [6]. Besides, half-maximal inhibition in assay [7] (IC50) required 4760 nM.

For the molecule `Oc1ccc(-c2ccc3c(-c4ccc(N5CCNCC5)cc4)n[nH]c3n2)cc1`, the IC50 in assay [1] stood at 9 nM; in assay [2], 39 nM; in assay [3], 12 nM; in assay [4] it was 4 nM; in assay [5], 7 nM; in assay [6], 6 nM. For the same molecule, half-maximal inhibition in assay [7] (IC50) was put at 18 nM.

As to `Oc1ccc(-c2ccc3c(-c4ccc(N5CCNCC5)cc4)c[nH]c3c2)cc1`, the IC50 is 4 nM in assay [1]; 42 nM in assay [2]; 22 nM in assay [3]; greater than 25000 nM in assay [4]; greater than 25000 nM in assay [5]; greater than 25000 nM in assay [7].

Regarding `c1ccc(-c2ccc3c(-c4ccc(N5CCNCC5)cc4)n[nH]c3n2)cc1`, the values for the IC50 in assay [1], in assay [2] and in assay [3] were 1700 nM, 7200 nM and 7400 nM, respectively.

For the molecule `COc1ccc(-c2ccc3c(-c4ccc(N5CCNCC5)cc4)n[nH]c3n2)cc1`, the half-maximal inhibitory concentration (IC50) in assay [1] was 4900 nM; in assay [2] it was greater than 25000 nM; in assay [3], 12800 nM.

With `c1cc(-c2ccc3c(-c4ccc(N5CCNCC5)cc4)n[nH]c3n2)ccn1`, the IC50 in assay [1] is 2500 nM; in assay [2] it was greater than 25000 nM; in assay [3] it was 5800 nM.

On to `Nc1ccc(-c2ccc3c(-c4ccc(N5CCNCC5)cc4)n[nH]c3n2)cn1`, for which the IC50 in assay [1] is 15000 nM; in assay [2] it was greater than 25000 nM; in assay [3] it was 12000 nM.

Take `Nc1cc(-c2ccc3c(-c4ccc(N5CCNCC5)cc4)n[nH]c3n2)ccn1`: the figures for the IC50 in assay [1], in assay [2] and in assay [3] were 170 nM, 20000 nM and 1800 nM, respectively.

Turning to `NS(=O)(=O)c1ccc(-c2ccc3c(-c4ccc(N5CCNCC5)cc4)n[nH]c3n2)cc1`, the IC50 in assay [1] is 11000 nM; in assay [2], greater than 25000 nM; in assay [3], 10000 nM.

`c1cc(-c2ccc3c(-c4ccc(N5CCNCC5)cc4)n[nH]c3n2)c2cc[nH]c2c1`: the IC50 was determined as 110 nM in assay [1], 650 nM in assay [2] and 260 nM in assay [3].

For `c1cncc(-c2ccc3[nH]cc(-c4ccc(N5CCNCC5)cc4)c3c2)c1`, the IC50 in assay [1] is 192 nM; in assay [2] it was 15000 nM; in assay [3] it was 490 nM.

As to `c1cc(-c2ccc3[nH]cc(-c4ccc(N5CCNCC5)cc4)c3c2)ccn1`, the IC50 was 2800 nM in assay [1], greater than 25000 nM in assay [2] and 5700 nM in assay [3].

For the molecule `c1ccc(-c2ccc3[nH]cc(-c4ccc(N5CCNCC5)cc4)c3c2)nc1`, the IC50 in assay [1] is 2100 nM; in assay [2], greater than 25000 nM; in assay [3], 14000 nM.

For the molecule `c1cnc(-c2ccc3[nH]cc(-c4ccc(N5CCNCC5)cc4)c3c2)cn1`, the IC50 was 530 nM in assay [1], 13600 nM in assay [2] and 960 nM in assay [3].

Consider `Nc1ccc(-c2c[nH]c3ccc(-c4cnccn4)cc23)c(F)n1`, for which the IC50 was 250 nM in assay [1], 5000 nM in assay [2] and 310 nM in assay [3].

On to `Nc1ccc(-c2c[nH]c3ccc(-c4cncc(O[C@H]5CC[C@H](N)CC5)n4)cc23)c(F)n1`, for which the figures for the IC50 in assay [1], in assay [2] and in assay [3] were less than 2 nM, 83 nM and 5 nM, respectively.

On to `Nc1ccc(-c2c[nH]c3ccc(-c4cncc(N5CCNCC5)n4)cc23)c(F)n1`, for which the IC50 was less than 2 nM in assay [1], 61 nM in assay [2] and 4 nM in assay [3].

As for `Nc1ccc(-c2c[nH]c3ccc(-c4cncc(N5CCCC(N)C5)n4)cc23)c(F)n1` (stereo unspecified), the IC50 in assay [1] is less than 2 nM; in assay [2], 81 nM; in assay [3], 3 nM.

On to `C[C@H](N)COc1cncc(-c2ccc3[nH]cc(-c4ccc(N)nc4F)c3c2)n1`, for which the figures for the half-inhibitory concentration (IC50) in assay [1], in assay [2] and in assay [3] were less than 2 nM, 56 nM and less than 2 nM, respectively.

With `CC[C@H](N)COc1cncc(-c2ccc3[nH]cc(-c4ccc(N)nc4F)c3c2)n1`, the values for the IC50 in assay [1], in assay [2] and in assay [3] were less than 2 nM, 26 nM and 5 nM, respectively.

For `CC(C)[C@H](N)COc1cncc(-c2ccc3[nH]cc(-c4ccc(N)nc4F)c3c2)n1`, the figures for the IC50 in assay [1], in assay [2] and in assay [3] were less than 2 nM, 72 nM and 6 nM, respectively.

As to `CC(C)(C)[C@H](N)COc1cncc(-c2ccc3[nH]cc(-c4ccc(N)nc4F)c3c2)n1`, the IC50 in assay [1] is less than 2 nM; in assay [2] it was 122 nM; in assay [3], 10 nM.

On to `Nc1ccc(-c2c[nH]c3ccc(-c4cncc(OC[C@@H](N)c5ccccc5)n4)cc23)c(F)n1`, for which the IC50 in assay [1] is less than 2 nM; in assay [2] it was 10 nM; in assay [3], less than 2 nM.

Regarding `Nc1ccc(-c2c[nH]c3ccc(-c4cncc(OC[C@H](N)c5ccccc5)n4)cc23)c(F)n1`, the values for the half-maximal inhibitory concentration (IC50) in assay [1], in assay [2] and in assay [3] were less than 2 nM, 20 nM and 5 nM, respectively.

Source of the values: ChEMBL document CHEMBL1909629, “Discovery of novel 3,5-disubstituted indole derivatives as potent inhibitors of Pim-1, Pim-2, and Pim-3 protein kinases” (Bioorg Med Chem Lett, 2011).
